According to patent US6410598B1, “Compositions and methods for advanced glycosylation endproduct-mediated modulation of amyloidosis” (priority 1994, dated 2002):

What was measured:
soluble βAP = biological target: T1, soluble βAP (Homo sapiens, UniProt P05067); assay: Thioflavin-T fluorescence assay of βAP aggregation and seeding; type: biochemical; conditions: 400 μM βAP 1-28, 0.1 M sodium acetate pH 7.0; 100 mM glucose, 0.05 M aminoguanidine; FIG. 4
T1 construct: Soluble βAP (400 μM βAP 1-28), 0.1 M sodium acetate in 0.1 M phosphate buffer; purchased Bachem (Torrance, Calif.); host or cells: chemical synthesis
T1 sequence (P05067 672-699): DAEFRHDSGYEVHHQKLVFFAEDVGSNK
Description: Aggregation of soluble βAP 1-28 or 3AP 1-40 at different concentrations was initiated by addition of 0.1 M sodium acetate (NaOAc) at the indicated pH (between 4.7 and 7.5) and continued for the indicated times. Quantitative aggregate formation with sub-millimolar βAP concentrations was detected using the procedure of LeVine (1992, Protein Science 2:404-410). Briefly, fluorescence of aggregates added to 10 μM Thioflavin-T (Aldrich)/50 mM potassium phosphate buffer, pH 6.0, was measured upon excitation at 450±5 nm and detection of emission at 482±10 nm on a Perkin Elmer LS-50B spectrofluorimeter. Where indicated, small amounts of pre-formed aggregates or “nucleation seeds” were added to the soluble βAP and aggregation initiated with 0.1 M sodium acetate.
After incubation, protein concentrations of seed preparations were measured and adjusted with buffer to 150 μM final concentration.

[1] = biological target: fibrillar β-amyloid peptide (Homo sapiens, UniProt P05067); assay: Co-precipitation with aggregated β-amyloid peptide (supernatant absorbance spectrum after centrifugation); type: binding
fibrillar β-amyloid peptide, sequence (P05067 672-713 limits assumed): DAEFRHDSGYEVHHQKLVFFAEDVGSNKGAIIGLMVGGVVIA
Description: A preparation of Compound 8, supra, was employed in this assay. Soluble β-amyloid peptide was allowed to aggregate in the presence of phosphate buffer, Compound 8 or dithionitrobenzene and various compounds as described in Example 1, supra. The samples containing dithionitrobenzene are controls for non-specific association of a chromophoric small molecule with precipitated β-amyloid peptide. An additional control sample was prepared containing phosphate buffer and the various compounds, but lacking β-amyloid peptide. After overnight incubation, the tubes were centrifuged at 15,000×g for 30 minutes, half of the supernatant removed and added to a cuvette, and the absorbance spectrum of the supernatant from 200 to 600 nm obtained. In the absence of an association between compound 8 and aggregated sedimentable B-amyloid components of the aggregated assay incubation, compound 8, which has an absorbance maximum at about 350 nm, will remain in the supernatant and its presence and concentration can be readily determined. Alternatively, association of Compound 8 with the precipitated β-amyloid peptide would result in decreased absorbance at 350 nm. […] In the control tubes, no decrease in the absorbance is expected, since the compound should remain soluble.

SMILES	effect on fluorescent aggregate formation of soluble βAP (soluble βAP)	absorbance of the supernatant after pelleting of fibrillar β-amyloid peptide versus before pelleting ([1]; 350 nm for Compound 8, overnight incubation, 15,000×g for 30 minutes, FIG. 7)	association with insoluble aggregated β-amyloid peptide ([1]; co-sedimentation in vitro)
N=C(N)NN [aminoguanidine]	can inhibit the AGE-enhanced aggregation		
Cc1ccc2nc(-c3ccc(NCCCC[N+](C)(C)C[C@@]4(O)OC[C@@H](O)[C@@H](O)[C@@H]4O)cc3)sc2c1 [Compound 8, (4-[N-(4-[N-(1-deoxy-β-D-fructopyranos-1-yl)-N,N-dimethylammonio]butyl)amino]phenyl)-6-methylbenzothiazole chloride]		reduced	specifically associates with insoluble, aggregated β-amyloid peptide deposits
